Source: PubChem BioAssay (NCI)
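All cell lines were grown in 96-well plates and treated with compound for 48 hours. GI50 is the concentration that inhibits growth by half. TGI denotes the concentration required for complete inhibition of growth.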

Legend:
Assay in all cases: NCI-60 cell line screen, 48 h
TK-10 renal = system: TK-10 renal
UO-31 renal = system: UO-31 renal
UACC-62 melanoma = system: UACC-62 melanoma
M14 melanoma = system: M14 melanoma
A549 NSCLC = system: A549 NSCLC
HCT-15 colon = system: HCT-15 colon
OVCAR-3 ovarian = system: OVCAR-3 ovarian
MALME-3M melanoma = system: MALME-3M melanoma
U251 CNS = system: U251 CNS
PC-3 prostate = system: PC-3 prostate
COLO 205 colon = system: COLO 205 colon
BT-549 breast = system: BT-549 breast
SN12C renal = system: SN12C renal
RXF 393 renal = system: RXF 393 renal
SK-MEL-2 melanoma = system: SK-MEL-2 melanoma
HL-60(TB) leukemia = system: HL-60(TB) leukemia
A498 renal = system: A498 renal
SF-295 CNS = system: SF-295 CNS
MDA-MB-231 breast = system: MDA-MB-231 breast
NCI-H226 lung = system: NCI-H226 lung
RPMI-8226 leukemia = system: RPMI-8226 leukemia
CCRF-CEM leukemia = system: CCRF-CEM leukemia
HCT-116 colon = system: HCT-116 colon
NCI/ADR-RES ovarian = system: NCI/ADR-RES ovarian
KM12 colon = system: KM12 colon
OVCAR-8 ovarian = system: OVCAR-8 ovarian
HOP-92 NSCLC = system: HOP-92 NSCLC
SF-539 CNS = system: SF-539 CNS
786-0 renal = system: 786-0 renal
IGROV1 ovarian = system: IGROV1 ovarian
SK-OV-3 ovarian = system: SK-OV-3 ovarian
CAKI-1 renal = system: CAKI-1 renal
MDA-MB-435 = system: MDA-MB-435
SW-620 colon = system: SW-620 colon
HS 578T breast = system: HS 578T breast
OVCAR-5 ovarian = system: OVCAR-5 ovarian
ACHN renal = system: ACHN renal
NCI-H23 lung = system: NCI-H23 lung
UACC-257 melanoma = system: UACC-257 melanoma
SK-MEL-5 melanoma = system: SK-MEL-5 melanoma
HOP-62 NSCLC = system: HOP-62 NSCLC
MOLT-4 leukemia = system: MOLT-4 leukemia
HCC-2998 colon = system: HCC-2998 colon
LOX IMVI melanoma = system: LOX IMVI melanoma
SNB-75 CNS = system: SNB-75 CNS
MCF7 breast = system: MCF7 breast
SR leukemia = system: SR leukemia
NCI-H522 lung = system: NCI-H522 lung
DU-145 prostate = system: DU-145 prostate
NCI-H460 lung = system: NCI-H460 lung
K-562 leukemia = system: K-562 leukemia
OVCAR-4 ovarian = system: OVCAR-4 ovarian
HT29 colon = system: HT29 colon
SF-268 CNS = system: SF-268 CNS
SNB-19 CNS = system: SNB-19 CNS

COc1ccc2c(c1)N(CCO)C1=C(C(=O)OC1)C2c1cc(OC)c(OC)c(OC)c1 (configuration not stated) was tested, and the GI50 (TK-10 renal) was 26.4 nM, the TGI (TK-10 renal) was > 50000 nM and the GI50 (UO-31 renal) was 183 nM. The TGI (UO-31 renal) was > 50000 nM, the GI50 (UACC-62 melanoma) was 20.8 nM and the TGI (UACC-62 melanoma) was > 50000 nM. The GI50 (M14 melanoma) was 21.3 nM, the TGI (M14 melanoma) was > 50000 nM and the GI50 (A549 NSCLC) was 26.6 nM. The TGI (A549 NSCLC) was > 50000 nM, the GI50 (HCT-15 colon) was 62.2 nM and the TGI (HCT-15 colon) was > 50000 nM. The GI50 (OVCAR-3 ovarian) was 13.3 nM, the TGI (OVCAR-3 ovarian) was 32.2 nM and the GI50 (MALME-3M melanoma) was 28.7 nM. For the same compound, the TGI (MALME-3M melanoma) was > 50000 nM, the GI50 (U251 CNS) was 16.5 nM and the TGI (U251 CNS) was > 50000 nM. For the same compound, the GI50 (PC-3 prostate) was 24.7 nM, the TGI (PC-3 prostate) was > 50000 nM and the GI50 (COLO 205 colon) was 15 nM. For the same compound, the TGI (COLO 205 colon) was 38 nM, the GI50 (BT-549 breast) was 91.9 nM and the TGI (BT-549 breast) was > 50000 nM. The GI50 (SN12C renal) was 60.9 nM, the TGI (SN12C renal) was > 50000 nM and the GI50 (RXF 393 renal) was 12.8 nM. For the same compound, the TGI (RXF 393 renal) was > 50000 nM, the GI50 (SK-MEL-2 melanoma) was 26.7 nM and the TGI (SK-MEL-2 melanoma) was 18300 nM. For the same compound, the GI50 (HL-60(TB) leukemia) was 15 nM, the GI50 (A498 renal) was 14.7 nM and the TGI (A498 renal) was 61.6 nM. The GI50 (SF-295 CNS) was 14 nM, the TGI (SF-295 CNS) was > 50000 nM and the GI50 (MDA-MB-231 breast) was 55 nM. The TGI (MDA-MB-231 breast) was 246 nM, the GI50 (NCI-H226 lung) was 22.8 nM and the TGI (NCI-H226 lung) was > 50000 nM. The GI50 (RPMI-8226 leukemia) was 28.7 nM, the TGI (RPMI-8226 leukemia) was > 50000 nM and the GI50 (CCRF-CEM leukemia) was 23.1 nM. For the same compound, the TGI (CCRF-CEM leukemia) was > 50000 nM, the GI50 (HCT-116 colon) was 17.4 nM and the GI50 (NCI/ADR-RES ovarian) was 78.7 nM. It also gave a TGI (NCI/ADR-RES ovarian) of 2700 nM, a GI50 (KM12 colon) of 17.8 nM and a GI50 (OVCAR-8 ovarian) of 19.9 nM. For the same compound, the TGI (OVCAR-8 ovarian) was 181 nM, the GI50 (HOP-92 NSCLC) was 86.1 nM and the TGI (HOP-92 NSCLC) was > 50000 nM. For the same compound, the GI50 (SF-539 CNS) was 17.6 nM, the TGI (SF-539 CNS) was > 50000 nM and the GI50 (786-0 renal) was 67.9 nM. The TGI (786-0 renal) was > 50000 nM, the GI50 (IGROV1 ovarian) was 36.2 nM and the TGI (IGROV1 ovarian) was > 50000 nM. The GI50 (SK-OV-3 ovarian) was 23.1 nM, the TGI (SK-OV-3 ovarian) was > 50000 nM and the GI50 (CAKI-1 renal) was 85.2 nM. The TGI (CAKI-1 renal) was > 50000 nM, the GI50 (MDA-MB-435) was < 10.8 nM and the TGI (MDA-MB-435) was 27.2 nM. For the same compound, the GI50 (SW-620 colon) was 19.6 nM, the TGI (SW-620 colon) was > 50000 nM and the GI50 (HS 578T breast) was 27.9 nM. The TGI (HS 578T breast) was > 50000 nM, the GI50 (OVCAR-5 ovarian) was 61.4 nM and the TGI (OVCAR-5 ovarian) was > 50000 nM. For the same compound, the GI50 (ACHN renal) was 54.9 nM, the TGI (ACHN renal) was > 50000 nM and the GI50 (NCI-H23 lung) was 28.1 nM. For the same compound, the TGI (NCI-H23 lung) was > 50000 nM, the GI50 (UACC-257 melanoma) was 22.6 nM and the TGI (UACC-257 melanoma) was > 50000 nM. For the same compound, the GI50 (SK-MEL-5 melanoma) was 17.1 nM, the TGI (SK-MEL-5 melanoma) was 71.4 nM and the GI50 (HOP-62 NSCLC) was 26.5 nM. The TGI (HOP-62 NSCLC) was > 50000 nM, the GI50 (MOLT-4 leukemia) was 93.8 nM and the TGI (MOLT-4 leukemia) was > 50000 nM. The GI50 (HCC-2998 colon) was 63.9 nM, the TGI (HCC-2998 colon) was > 50000 nM and the GI50 (LOX IMVI melanoma) was 25.8 nM. For the same compound, the TGI (LOX IMVI melanoma) was > 50000 nM, the GI50 (SNB-75 CNS) was 19.8 nM and the TGI (SNB-75 CNS) was > 50000 nM. For the same compound, the GI50 (MCF7 breast) was 19.5 nM, the TGI (MCF7 breast) was > 50000 nM and the GI50 (SR leukemia) was 25.2 nM. The TGI (SR leukemia) was > 50000 nM, the GI50 (NCI-H522 lung) was 10.9 nM and the TGI (NCI-H522 lung) was 28.6 nM. It also gave a GI50 (DU-145 prostate) of 26.1 nM, a TGI (DU-145 prostate) of 188 nM and a GI50 (NCI-H460 lung) of 19.6 nM. The TGI (NCI-H460 lung) was > 50000 nM, the GI50 (K-562 leukemia) was 19.6 nM and the TGI (K-562 leukemia) was > 50000 nM. The GI50 (OVCAR-4 ovarian) was 31 nM, the TGI (OVCAR-4 ovarian) was > 50000 nM and the GI50 (HT29 colon) was 14.1 nM. For the same compound, the TGI (HT29 colon) was 38.9 nM, the GI50 (SF-268 CNS) was 33 nM and the TGI (SF-268 CNS) was > 50000 nM. For the same compound, the GI50 (SNB-19 CNS) was 42.9 nM and the TGI (SNB-19 CNS) was > 50000 nM.
